Assay results: patent publication US20250051362A1, “SUBSTITUTED FUSED HETEROCYCLIC COMPOUND, AND PREPARATION METHOD THEREFOR AND USE THEREOF” (Shanghai Annova Biotechnology Co., Ltd., priority 2021, published 2025)

Key:
ATR kinase = ATR kinase (Homo sapiens (Human), UniProt Q13535); assay: In vitro ATR kinase inhibition assay (Mobility Shift Assay, Caliper EZ Reader); format: biochemical; conditions: ATP concentration of Km; 4 h at 28° C.
Method: Experimental method: The inhibitory activity of the compounds on ATR kinase in vitro was determined by Mobility Shift Assay at an ATP concentration of Km using Caliper EZ Reader as a mobility shift assaying technology based on microfluidic chip technology.
Experimental procedure: (1) The compounds to be tested were dissolved in DMSO and serially diluted 4× for a total of 10 concentrations; (2) 0.06 μL of the compounds at different concentrations were pipetted into a 384-well plate using an Echo pipetting system; (3) a 2× kinase solution with a concentration of 10 nM ATR kinase was prepared from the ATR kinase and the 1× kinase buffer; and a 2× substrate solution with a concentration of 6 μM 5-FAM-AK-17 and 4 μM ATP was prepared from 5-FAM-AK-17, ATP and the 1× kinase buffer; (4) 10 μL of the 2× kinase solution was added into the 384-well plate and incubated for 10 min at room temperature; 10 μL of the 2× substrate solution was then added and incubated for 4 h at 28° C.; (5) 30 μL of the termination buffer was added to terminate the reaction, and then the 384-well plate was put into the Caliper EZ Reader to read the conversion rate data.

[1] = tested on: human colon cancer LoVo cells; assay: Cell proliferation inhibition assay (CellTiter-Glo); format: cell-based; conditions: LoVo cells, 96 hours incubation; for Emax: read-out: Max Inhibition
Text: Experimental method: A CellTiter-Glo cell viability assay kit was used to test the inhibitory effect of the compounds on the in vitro proliferation of human colon cancer LoVo cells.
Experimental materials: LoVo cells (ATCC, Cat. No. CCL-29); F-12K medium (Invitrogen, Cat. No. 21127-022); fetal bovine serum (Biological Industries, Cat. No. 04-002-1A); GlutaMAX (Gibco, Cat. No. 35050-061); 0.25% trypsin-EDTA (Invitrogen, Cat. No. 25200-072); CellTiter-Glo kit (Promega, Cat. No. G7558).
Experimental procedure: (1) F-12K medium, fetal bovine serum and GlutaMAX were formulated into a complete medium for culturing LoVo cells; (2) well-grown LoVo cells were taken, digested with trypsin and transferred to a centrifuge tube, and centrifuged; the supernatant was discarded, and cells were resuspended by adding a fresh medium and counted by a Vi-CELL XR cell counter; the density of the cell suspension was adjusted to 25,000 to 30,000 cells/mL, and the cell suspension was added at 100 μL/well in a 96-well cell culture plate, while a blank control group was set up with no cells added, and the cell culture plate was incubated in a carbon dioxide incubator overnight; (3) a DMSO solution of the compound to be tested was dispensed into the above 96-well cell culture plate using an HP D300 ultra-micro sampler, with 0.5 μL of the solution per well and 10 concentrations for each compound (3× dilution), while a DMSO control group with no compound added was set up, and the plate was continued to be incubated in a carbon dioxide incubator for 96 hours; (4) the cell culture plate was taken out and equilibrated to room temperature, with 100 μL of a CellTiter-Glo reagent added to each well, and then the plate was kept away from light, shaken for 10 minutes and then incubated for 10 minutes; (5) the cell culture plate was put into EnSpire for plate reading, and the luminescence value RLU was recorded.
Data processing: (1) The inhibition rate was calculated from the luminescence values: “RLUDMSO” is the luminescence value of the DMSO control group without compound, “RLUblank” is the luminescence value of the blank control group without cells, and “RLUcompound” is the luminescence value of the compound test group, and the inhibition rate=[1−(RLUcompound−RLUblank)/(RLUDMSO−RLUblank)]×100%; (2) with curve fitting using the Excel add-on XLFit, the IC50 value was calculated.

Sequence of ATR kinase (Q13535 whole entry): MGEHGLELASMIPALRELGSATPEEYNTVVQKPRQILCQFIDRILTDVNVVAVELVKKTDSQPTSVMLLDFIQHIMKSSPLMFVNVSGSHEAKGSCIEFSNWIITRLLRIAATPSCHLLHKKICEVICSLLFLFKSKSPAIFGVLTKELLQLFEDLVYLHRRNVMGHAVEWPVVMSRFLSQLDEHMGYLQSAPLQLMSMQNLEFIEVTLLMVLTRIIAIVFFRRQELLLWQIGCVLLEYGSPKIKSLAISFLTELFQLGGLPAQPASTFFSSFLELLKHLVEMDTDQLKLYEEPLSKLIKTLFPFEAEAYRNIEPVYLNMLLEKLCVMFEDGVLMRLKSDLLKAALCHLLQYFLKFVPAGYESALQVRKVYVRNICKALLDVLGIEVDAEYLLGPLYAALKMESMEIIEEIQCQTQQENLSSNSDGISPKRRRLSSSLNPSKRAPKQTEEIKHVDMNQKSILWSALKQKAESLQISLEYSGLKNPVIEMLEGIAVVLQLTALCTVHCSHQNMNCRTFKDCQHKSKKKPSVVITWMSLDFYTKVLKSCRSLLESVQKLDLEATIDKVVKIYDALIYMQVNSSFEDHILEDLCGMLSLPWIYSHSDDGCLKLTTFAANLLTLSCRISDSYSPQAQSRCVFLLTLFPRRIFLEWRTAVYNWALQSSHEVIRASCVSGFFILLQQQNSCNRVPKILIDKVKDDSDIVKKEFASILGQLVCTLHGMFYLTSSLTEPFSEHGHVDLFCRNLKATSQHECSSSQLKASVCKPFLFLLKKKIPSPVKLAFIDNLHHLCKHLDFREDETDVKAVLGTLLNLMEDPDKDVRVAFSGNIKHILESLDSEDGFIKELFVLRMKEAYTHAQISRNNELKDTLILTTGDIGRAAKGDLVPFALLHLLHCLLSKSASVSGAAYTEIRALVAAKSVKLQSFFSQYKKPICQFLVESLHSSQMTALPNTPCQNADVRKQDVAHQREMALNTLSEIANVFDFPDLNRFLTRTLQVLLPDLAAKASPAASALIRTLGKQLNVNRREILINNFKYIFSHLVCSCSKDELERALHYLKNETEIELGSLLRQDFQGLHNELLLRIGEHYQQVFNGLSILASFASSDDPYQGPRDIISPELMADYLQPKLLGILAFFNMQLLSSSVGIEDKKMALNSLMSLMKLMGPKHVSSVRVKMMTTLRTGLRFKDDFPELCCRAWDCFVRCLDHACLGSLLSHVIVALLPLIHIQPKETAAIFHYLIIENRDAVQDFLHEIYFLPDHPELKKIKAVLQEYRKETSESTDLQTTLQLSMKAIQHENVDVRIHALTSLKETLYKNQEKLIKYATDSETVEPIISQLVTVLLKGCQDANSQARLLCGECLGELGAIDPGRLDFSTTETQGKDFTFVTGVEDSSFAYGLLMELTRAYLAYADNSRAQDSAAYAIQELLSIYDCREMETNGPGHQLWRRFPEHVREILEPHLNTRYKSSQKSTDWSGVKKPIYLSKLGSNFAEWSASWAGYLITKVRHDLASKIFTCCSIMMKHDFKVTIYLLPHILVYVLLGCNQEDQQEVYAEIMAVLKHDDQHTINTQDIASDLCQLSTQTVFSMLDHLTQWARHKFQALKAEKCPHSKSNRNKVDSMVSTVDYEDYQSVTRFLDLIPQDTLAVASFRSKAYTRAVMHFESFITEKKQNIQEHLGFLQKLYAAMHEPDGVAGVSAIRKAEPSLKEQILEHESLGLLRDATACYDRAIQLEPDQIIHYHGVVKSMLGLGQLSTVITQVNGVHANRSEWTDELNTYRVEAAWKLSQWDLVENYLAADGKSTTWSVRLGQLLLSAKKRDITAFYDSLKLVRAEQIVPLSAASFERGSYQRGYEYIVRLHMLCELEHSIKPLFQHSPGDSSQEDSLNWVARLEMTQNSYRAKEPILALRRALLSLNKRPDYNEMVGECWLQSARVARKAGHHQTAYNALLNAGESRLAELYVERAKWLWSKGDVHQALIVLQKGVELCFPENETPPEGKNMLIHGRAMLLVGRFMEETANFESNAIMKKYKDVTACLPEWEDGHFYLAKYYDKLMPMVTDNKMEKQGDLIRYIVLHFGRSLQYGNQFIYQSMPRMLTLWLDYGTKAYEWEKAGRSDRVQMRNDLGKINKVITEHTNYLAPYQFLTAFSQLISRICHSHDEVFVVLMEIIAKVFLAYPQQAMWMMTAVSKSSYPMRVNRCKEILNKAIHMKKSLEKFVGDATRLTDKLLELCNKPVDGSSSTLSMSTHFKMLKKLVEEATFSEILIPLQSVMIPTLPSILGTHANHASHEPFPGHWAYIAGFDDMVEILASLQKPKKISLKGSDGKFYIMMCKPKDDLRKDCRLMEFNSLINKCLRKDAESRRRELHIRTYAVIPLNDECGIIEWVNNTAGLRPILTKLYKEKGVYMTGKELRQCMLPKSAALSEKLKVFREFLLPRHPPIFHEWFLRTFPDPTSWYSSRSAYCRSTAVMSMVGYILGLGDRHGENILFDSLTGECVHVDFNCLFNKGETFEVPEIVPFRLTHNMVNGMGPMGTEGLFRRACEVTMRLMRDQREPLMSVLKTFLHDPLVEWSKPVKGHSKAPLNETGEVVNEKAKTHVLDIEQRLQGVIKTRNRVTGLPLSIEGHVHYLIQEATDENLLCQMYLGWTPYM
Sequence of ATR kinase (Q8WXE1 whole entry partner): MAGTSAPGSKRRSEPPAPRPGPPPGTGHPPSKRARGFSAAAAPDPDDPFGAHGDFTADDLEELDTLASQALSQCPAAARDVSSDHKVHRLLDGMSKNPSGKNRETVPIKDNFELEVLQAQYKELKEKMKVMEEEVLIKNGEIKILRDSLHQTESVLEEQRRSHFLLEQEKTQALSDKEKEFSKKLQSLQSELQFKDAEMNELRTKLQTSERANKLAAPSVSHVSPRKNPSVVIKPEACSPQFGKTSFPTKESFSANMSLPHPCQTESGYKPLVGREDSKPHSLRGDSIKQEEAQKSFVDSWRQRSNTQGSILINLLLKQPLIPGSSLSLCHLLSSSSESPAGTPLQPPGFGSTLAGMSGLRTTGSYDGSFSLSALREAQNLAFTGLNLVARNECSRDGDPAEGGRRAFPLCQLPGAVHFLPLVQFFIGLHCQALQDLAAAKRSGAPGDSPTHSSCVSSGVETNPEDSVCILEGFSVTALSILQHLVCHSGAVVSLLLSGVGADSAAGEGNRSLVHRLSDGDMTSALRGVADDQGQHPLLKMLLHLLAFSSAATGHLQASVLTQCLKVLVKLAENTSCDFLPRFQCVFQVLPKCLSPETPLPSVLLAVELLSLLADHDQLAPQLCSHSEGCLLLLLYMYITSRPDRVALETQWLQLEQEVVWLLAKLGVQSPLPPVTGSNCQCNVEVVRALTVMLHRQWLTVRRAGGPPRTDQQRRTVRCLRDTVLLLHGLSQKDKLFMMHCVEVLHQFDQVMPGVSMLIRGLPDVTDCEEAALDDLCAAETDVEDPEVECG

C[C@@H]1COCCN1c1nc(-c2ccnc3[nH]ccc23)nc2c1ncn2S(C)(=O)=O [Compound 22, (R)-3-methyl-4-(9-(methylsulfonyl)-2-(1H-pyrrolo[2,3-b]pyridin-4-yl)-9H-purin-6-yl)morpholine]
IC50 (ATR kinase): 10 nM
Emax ([1]; Homo sapiens): 93%

C[C@@H]1COCCN1c1nc(-c2ccnc3[nH]ccc23)nc2c1cnn2S(C)(=O)=O [Compound 23, (R)-3-methyl-4-(1-(methylsulfonyl)-6-(1H-pyrrolo[2,3-b]pyridin-4-yl)-1H-pyrazolo[3,4-d]pyrimidin-4-yl)morpholine]
IC50 (ATR kinase): 15 nM
IC50 ([1]; Homo sapiens): 740 nM
Emax ([1]; Homo sapiens): 92%

C[C@@H]1COCCN1c1cc(-c2ccnc3[nH]ccc23)nc2c1ncn2S(C)(=O)=O [Compound 24, (R)-3-methyl-4-(3-(methylsulfonyl)-5-(1H-pyrrolo[2,3-b]pyridin-4-yl)-3H-imidazo[4,5-b]pyridin-7-yl)morpholine]
IC50 (ATR kinase): 15 nM
Emax ([1]; Homo sapiens): 92%

C[C@@H]1COCCN1c1nc(-c2cncc3[nH]ccc23)cc2c1ncn2S(C)(=O)=O [Compound 25, (R)-3-methyl-4-(1-(methylsulfonyl)-6-(1H-pyrrolo[2,3-c]pyridin-4-yl)-1H-imidazo[4,5-c]pyridin-4-yl)morpholine]
IC50 (ATR kinase): 9.4 nM
Emax ([1]; Homo sapiens): 89%

C[C@@H]1COCCN1c1nc(-c2ccnc3[nH]ccc23)cc2c1ccn2S(C)(=O)=O [Compound 26, (R)-3-methyl-4-(1-(methylsulfonyl)-6-(1H-pyrrolo[2,3-b]pyridin-4-yl)-1H-pyrrolo[3,2-c]pyridin-4-yl)morpholine]
IC50 (ATR kinase): 8.6 nM
Emax ([1]; Homo sapiens): 92%

C[C@@H]1COCCN1c1nc(-c2nc3ccccc3[nH]2)nc2c1ccn2S(C)(=O)=O [Compound 27, (R)-4-(2-(1H-benzo[d]imidazol-2-yl)-7-(methylsulfonyl)-7H-pyrrolo[2,3-d]pyrimidin-4-yl)-3-methylmorpholine]
IC50 (ATR kinase): 1.6 nM
Emax ([1]; Homo sapiens): 94%

CNc1nc2ccccc2n1-c1nc(N2CCOC[C@H]2C)c2ccn(S(C)(=O)=O)c2n1 [Compound 28, (R)-N-methyl-1-(4-(3-methylmorpholinyl)-7-(methylsulfonyl)-7H-pyrrolo[2,3-d]pyrimidin-2-yl)-1H-benzo[d]imidazol-2-amine]
IC50 (ATR kinase): 4.1 nM
IC50 [1]: 100 nM
Max Inhibition [1]: 92%

Cc1cc(-c2nc(N3CCOC[C@H]3C)c3ccn(S(C)(=O)=O)c3n2)c2cc[nH]c2c1 [Compound 29, (R)-3-methyl-4-(2-(6-methyl-1H-indol-4-yl)-7-(methylsulfonyl)-7H-pyrrolo[2,3-d]pyrimidin-4-yl)morpholine]
IC50 (ATR kinase): 2.3 nM
Emax ([1]; Homo sapiens): 94%

C[C@@H]1COCCN1c1nc(-c2cc(C#N)cc3[nH]ccc23)nc2c1ccn2S(C)(=O)=O [Compound 30, (R)-4-(4-(3-methylmorpholinyl)-7-(methylsulfonyl)-7H-pyrrolo[2,3-d]pyrimidin-2-yl)-1H-indol-6-carbonitrile]
IC50 (ATR kinase): 9.4 nM
IC50 [1]: 1060 nM
Max Inhibition [1]: 93%

C[C@@H]1COCCN1c1nc(-c2cc(Cl)cc3[nH]ccc23)nc2c1ccn2S(C)(=O)=O [Compound 31, (R)-4-(2-(6-chloro-1H-indol-4-yl)-7-(methylsulfonyl)-7H-pyrrolo[2,3-d]pyrimidin-4-yl)-3-methylmorpholine]
IC50 (ATR kinase): 4.4 nM
Emax ([1]; Homo sapiens): 93%

COc1cc(-c2nc(N3CCOC[C@H]3C)c3ccn(S(C)(=O)=O)c3n2)c2cc[nH]c2c1 [Compound 32, (R)-4-(2-(6-methoxy-1H-indol-4-yl)-7-(methylsulfonyl)-7H-pyrrolo[2,3-d]pyrimidin-4-yl)-3-methylmorpholine]
IC50 (ATR kinase): 5.3 nM
Emax ([1]; Homo sapiens): 95%

CCS(=O)(=O)n1ccc2c(N3CCOC[C@H]3C)nc(-c3ccnc4[nH]ccc34)nc21 [Compound 33, (R)-4-(7-(ethylsulfonyl)-2-(1H-pyrrolo[2,3-b]pyridin-4-yl)-7H-pyrrolo[2,3-d]pyrimidin-4-yl)-3-methylmorpholine]
IC50 (ATR kinase): 5 nM
Emax ([1]; Homo sapiens): 92%

C[C@@H]1COCCN1c1nc(-c2ccnc3[nH]ccc23)nc2c1ccn2S(=O)(=O)N(C)C [Compound 34, (R)-N,N-dimethyl-4-(3-methylmorpholinyl)-2-(1H-pyrrolo[2,3-b]pyridin-4-yl)-7H-pyrrolo[2,3-d]pyrimidine-7-sulfamide]
IC50 (ATR kinase): 7.1 nM
IC50 [1]: 290 nM
Max Inhibition [1]: 93%
